# Test results from US8188129B2, “(−)-enantiomer of the 2-[2-(1-chloro-cyclopropyl)-3-(2-chlorophenyl)-2-hydroxypropyl]-2,4-dihydro-[1,2,4]-triazole-3-thione” (Bayer Aktiengesellschaft, priority 1999, dated 2012).
# Key:
# Uncinula necator = test: Uncinula test (vine)/protective; type: in vivo; conditions: protective spray, application rate 10 g/ha, evaluation 14 days after inoculation
# Venturia inaequalis = test: Venturia test (apple)/curative; conditions: curative spray, application rate 1 g/ha, evaluation 12 days after inoculation
# Protocol: To test for curative activity, young plants are inoculated with an aqueous conidia suspension of the apple scab pathogen Venturia inaequalis. The plants remain in an incubation cabin at approximately 20° C. and 100% relative atmospheric humidity for 1 day and are then placed in a greenhouse.
# The plants are then placed in a greenhouse at approximately 21° C. and a relative atmospheric humidity of approximately 90%.
# Evaluation is carried out 12 days after the inoculation.
# Cochliobolus sativus = Cochliobolus sativus test (barley)/protective; conditions: protective spray, evaluation 7 days after inoculation
# Protocol: After the spray coating has dried on, the plants are sprayed with a conidia suspension of Cochiliobolus sativus. The plants remain in an incubation cabin at 20° C. and 100% relative atmospheric humidity for 48 hours.
# The plants are placed in a greenhouse at a temperature of 20° C. and a relative atmospheric humidity of approximately 80%.
# Evaluation is carried out 7 days after the inoculation.
# Pyricularia oryzae = type: in vivo; conditions: rice, protective spray, application rate 375 g/ha, evaluation 4 days after inoculation
# Podosphaera leucotricha = test: Podosphaera test (apple)/protective; type: in vivo; conditions: protective spray, application rate 10 g/ha, evaluation 10 days after inoculation
SMILES,Efficacy in % (Uncinula necator),Efficacy in % (Venturia inaequalis),Efficacy in % (Cochliobolus sativus; application rate 125 g/ha),Efficacy in % (Cochliobolus sativus; application rate 250 g/ha),Efficacy in % (Pyricularia oryzae),Efficacy in % (Podosphaera leucotricha)
"OC(Cc1ccccc1Cl)(Cn1nc[nH]c1=S)C1(Cl)CC1 (racemic) [(Ia), racemic 2-[2-(1-chloro-cyclopropyl)-3-(2-chloro-phenyl)-2-hydroxypropyl]-2,4-dihydro-[1,2,4]-triazole-3-thione]",47%,79%,59%,66%,30%,60%
"OC(Cc1ccccc1Cl)(Cn1nc[nH]c1=S)C1(Cl)CC1 (single isomer, unassigned; (-)) [(I), (−)-enantiomer of 2-[2-(1-chloro-cyclopropyl)-3-(2-chlorophenyl)-2-hydroxypropyl]-2,4-dihydro-[1,2,4]-triazole-3-thione]",84%,91%,75%,75%,90%,78%
